Results on four substances are retold here after US20080269116A1 (priority 2004, published 2008).

Where no end group is shown, it is not given here. The star is where a group is joined. Octanoyl = CCCCCCCC(=O)*

For series [1], the system named is human T cells. The series can be described thus: Actin polymerization in human T cells (phalloidin staining). Type of series: cell-based. Conditions: ghrelin 100 ng/ml, 20 min. The text has this: Actin Polymerization. […] Thereafter cells were fixed and permeabilized in 2% Paraformaldehyde plus 0.1% Triton-X 100 and stained for actin using phalloidin AF-594 and nucleus by DAPI.

Another series deals with Human PBMCs. The series can be described thus: Cytokine production by PHA-stimulated human PBMCs (ELISA). Type of series: cell-based. As to conditions: 24 h.
In series [2] the test system is primary human T cells. The series can be described thus: Cytokine production by anti-CD3-stimulated primary human T cells (ELISA). As to conditions: immobilized anti-CD3 antibody, 24 h. Format: cell-based. As for the experimental part:
(§1) T cell isolation and culture. Peripheral blood mononuclear cells (PBMC) were obtained by Ficoll-Hypaque density centrifugation. T cells were purified from PBMC using human T cell enrichment columns (R&D systems) via high affinity negative selection according to manufacturer's instructions. […] T cells were stimulated with plate bound anti-human CD3 antibody (BD Pharmingen, San Diego, Calif.) (200 ng/ml) at a concentration of 3×10^6 cells/ml in AIM-V serum free media for 24 h.
(§2) Cytokine estimation. IL-1β, IL-6 and TNF-α were estimated in T cell supernatants after 24 h using commercial ELISA kits according to manufacturer's instructions (Biosource, Camarillo, Calif.). Serum cytokines were analyzed using Bio-Plex Mouse Cytokine 18-Plex Panel according to manufacturer's instructions (Biorad, Hercules, Calif.).

The next series concerns T cells or PBMCs. The series can be described thus: Cytolytic effects: lactate dehydrogenase and trypan blue cell counts. Format: cell-based, human. Conditions: control vs hormone-treated T cells or PBMCs. The text has this:
The classical pro-inflammatory cytokines, IL-1a, IL-1β, IL-6 and TNF-α are known to play a critical role in development of anorexia-cachexia syndrome (Inui et al. 1999. Cancer Res. 59: 4493-4501). The anorexia-cachexia syndrome is a complex multifactorial metabolic condition associated with altered protein, carbohydrate and fat metabolism resulting in anorexia, negative energy balance, weight loss and muscle wasting (Kotler et al. 2000. Ann. Internal Med. 133: 622-634).

A further series relates to T cells. The series can be described thus: Cytokine mRNA expression in T cells, real time RT-PCR. Format: cell-based, human. As to conditions: normalized with GAPDH. As for the experimental part: as §1
(§3) Real Time RT-PCR analysis. RT-PCR was performed as described previously (Nagasawa et al. Adv. Immunol. 71: 211-228 (1999)). Total RNA (2 μg) and oligo-dT primers were used to synthesize single-stranded cDNA using the Reverse Transcription kit (Life Technologies, Gaithersburg, Md.) according to manufacturer's instructions. The PCR was set up using SYBR green Master Mix (Applied Biosystems), 1 μl cDNA and gene-specific primers at a final concentration of 0.3 μM. Thermal cycling was carried out on the Applied Biosystems GeneAmp 7700 Sequence Detector and SYBR green dye intensity was analyzed using GeneAmp 7700 SDS software. […] Mouse IL-1β, IL-6, TNF-α, GAPDH and human GHS-R1a primers were designed using ABI prism software (PE Applied Biosystems). The PCR product of the GHS-R 1a amplification was quantitated using the Agilent 2100 Bioanalyzer (Agilent Technologies, Palo Alto, Calif.). Primers are available upon request. No PCR products were generated from genomic versus cDNA template.

For series [3], the system named is primary human T cells. The series can be described thus: Leptin-induced cytokine protein and mRNA expression in anti-CD3-activated human T cells. Type of series: cell-based. Conditions: 24 h. As for the experimental part: as §1, §2, §3
Series [4] has as its system human T cells. The series can be described thus: T cell proliferation and IL-2 levels after anti-CD3 mAb and ghrelin. Format: cell-based. Conditions: anti-CD3 mAb and ghrelin treatment.
Series [5] deals with LPS-induced endotoxemia. The series can be described thus: LPS-induced endotoxemia in mice: tissue cytokine mRNA, real time PCR. Conditions: for TNF-α expression: 24 h post LPS. Format: in vivo, BALB/c mice. As for the experimental part: (§4) Mice. Male 20-22 g BALB/c mice (Taconic, Germantown, N.Y.), 8-10 weeks old, were used. The guidelines proposed by the committee for the Care of Laboratory Animal Resources Commission of Life Sciences-National Research Council were followed to minimize animal pain and distress. Each animal received rodent laboratory chow and ad libitum water.
(§5) LPS-induced inflammation. Endotoxin shock in mice was induced by intraperitoneal (i.p.) injection with 10 μg of LPS (E. coli serotype 055:B5, Sigma) as described previously (Bochkov et al. 2002. Nature. 419: 77-8). […] Mice were sacrificed 4 h and 24 h post-LPS challenge and visceral organs and serum were collected.
as §3

The subject of series [6] is LPS-induced endotoxemia. The series can be described thus: LPS-induced endotoxemia in mice: serum cytokine levels (Bio-Plex). Format: in vivo, BALB/c mice. Here is the method:
as §4, §5, §2

Another series relates to LPS-induced anorexia. The series can be described thus: Food intake in LPS-challenged and control mice. Format: in vivo, BALB/c mice. Here is the method:
as §4, §5

In a further series the target is T1, GHS-R (Homo sapiens, UniProt Q92847).
T1 construct: endogenous in cells; host or cells: cultured human T cells
T1 sequence (Q92847 whole entry): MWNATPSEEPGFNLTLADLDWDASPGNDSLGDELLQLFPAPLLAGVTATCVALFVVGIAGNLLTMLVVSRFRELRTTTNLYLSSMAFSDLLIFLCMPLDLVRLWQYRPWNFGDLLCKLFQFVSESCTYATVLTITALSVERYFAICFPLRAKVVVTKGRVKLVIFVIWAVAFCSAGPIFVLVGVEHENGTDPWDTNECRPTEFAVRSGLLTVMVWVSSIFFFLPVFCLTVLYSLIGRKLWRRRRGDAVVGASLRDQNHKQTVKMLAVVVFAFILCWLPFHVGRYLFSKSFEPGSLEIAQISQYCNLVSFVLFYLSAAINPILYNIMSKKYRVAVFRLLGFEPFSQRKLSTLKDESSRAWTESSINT
The series can be described thus: Intracellular calcium mobilization in cultured human T cells (Fura-2). Format: cell-based. Here is the method:
Intracellular calcium mobilization. […] Cells were incubated in PBS containing 5 μM Fura-2 AM for 30 minutes at room temperature. The cells were subsequently washed and then resuspended at 1×10^6/mL in PBS. A total of 2 mL of the cell suspension was placed in a continuously stirring cuvette at room temperature in an LS50B spectrophotometer (Perkin-Elmer, Wellesley, Mass.). Fluorescence was monitored at λex1=340 nm, λex2=380 nm, and λem=510 nm. The data are presented as the relative ratio of fluorescence excited at 340 and 380 nm.

The test system of series [7] is human T cells. The series can be described thus: Effect of leptin on ghrelin and GHS-R expression in human T cells. Type of series: cell-based. Here is the method:
as §1
as §3, with “No PCR products were generated from genomic versus cDNA template.” left out

Setting [8] is: PHA 1 μg/ml, ghrelin 1 to 100 ng/ml.
The mark [9] stands for this setting: spleen and liver, 4 and 24 h post LPS, ghrelin 5 mg/kg i.p.
Where [10] appears, read: ghrelin alone vs sham control mice.
[11] abbreviates: leptin alone, primary human T cells and PBMCs.

With ghrelin, in the series with human T cells [1], the “actin polymerization / polarization of F-actin” value is “marked increase in broad membrane structures characteristic of lamellipodia with typical polarization of F-actin”. Moreover, the TGF-β production entry in the series on Human PBMCs (PHA 1 μg/ml, any concentration tested) is “failed to alter TGF-β production”. Besides, in the series on Human PBMCs (setting [8]), the IL-1β production result is “significant inhibition”, the IL-6 production result is given as “significant inhibition” and the TNF-α production entry was “significant inhibition”. In addition, in the series on primary human T cells [2], the IL-1β production entry is given as “significant dose-dependent inhibition” and the IL-6 production entry is listed as “significant dose-dependent inhibition”. For the same substance, in the series on T cells or PBMCs, the “cytolytic effects (LDH, cell counts by trypan blue exclusion)” value was “failed to demonstrate any significant difference between control and hormone-treated cells”. In the series on T cells, the “IL-1β mRNA expression” value is on record as “significantly inhibits”, the “IL-6 mRNA expression” value was “significantly inhibits” and the “TNF-α mRNA expression” value is “significantly inhibits”. The “leptin-induced cytokine protein and gene expression (IL-1β, IL-6, TNF-α)” value with primary human T cells [3] (ghrelin co-incubated with leptin 100 nM, T cells) is given as “dose-dependent inhibition”. Also, in the series with human T cells [4], the IL-2 secretion result is “no significant effects” and the T cell proliferation result was “no significant effects”. For the same substance, the TNF-α expression result in the series on LPS-induced endotoxemia [5] (liver) is listed as “inhibited”. In the series with LPS-induced endotoxemia [5] (setting [9]), the “IL-1β mRNA expression” value is listed as “attenuation” and the “IL-6 mRNA expression” value is recorded as “attenuation”. In addition, the “TNF-α mRNA” value in the series on LPS-induced endotoxemia [5] (spleen and liver, 4 h post LPS) was “Attenuation”. For the same substance, in the series on LPS-induced endotoxemia [5] (spleen), the TNF-α expression result is given as “remained unchanged”. For the same substance, in the series with LPS-induced endotoxemia [6] (24 h after LPS challenge), the “serum IL-1β” value is given as “significant inhibition” and the “serum IL-6” value is on record as “significant inhibition”. The “serum ILα levels” value in the series on LPS-induced endotoxemia [6] (24 h post LPS and ghrelin treatment) was “inhibited”. Moreover, in the series on LPS-induced endotoxemia [6] (setting [10]), the “Serum IL-1α level” value is listed as “significantly inhibited” and the “Serum IL-1β level” value is “significantly inhibited”. Further, in the series with LPS-induced endotoxemia [6] (serum, 4 h), the “circulating IL-6 level” value is listed as “but not in IL-1β (FIG. 7a) or IL-6” and the “circulating TNF-α level” value is “significant change”. Also, the “LPS-induced anorexia (food intake)” value in the series on LPS-induced anorexia (24 h post ghrelin and LPS, prior ghrelin treatment) is given as “significant attenuation of this LPS-induced anorexia”. Further, in the series on LPS-induced anorexia (ghrelin-treated control mice in the absence of LPS challenge, 24 h), the “increase in food intake compared to sham controls” value is listed as 30%.
Consider [D-Lys-3]-GHRP-6 [reference compound], for which the “effect on ghrelin-mediated intracellular calcium release” value at GHS-R (pretreatment with antagonist 10^−4 M, then ghrelin 100 ng/ml) was “markedly attenuated”. For the same substance, the “effect on ghrelin-mediated inhibition of cytokine production” value in the series on Human PBMCs (antagonist 10^−4 M added with ghrelin, PHA-stimulated PBMCs) is listed as “attenuated this ghrelin-mediated inhibition”.
For “Gly-Ser-Ser(n-Octanoyl)-Phe-Leu-Ser-Pro-Glu-His-Gln-Arg-Val-Gln-Gln-Arg-Lys-Glu-Ser-NH2 (GSS(Octanoyl)FLSPEHQRVQQRKES-NH2; N-terminus assumed; SMILES CCCCCCCC(=O)OC[C@H](NC(=O)[C@H](CO)NC(=O)CN)C(=O)N[C@@H](Cc1ccccc1)C(=O)N[C@@H](CC(C)C)C(=O)N[C@@H](CO)C(=O)N1CCC[C@H]1C(=O)N[C@@H](CCC(=O)O)C(=O)N[C@@H](Cc1c[nH]cn1)C(=O)N[C@@H](CCC(N)=O)C(=O)N[C@@H](CCCNC(=N)N)C(=O)N[C@H](C(=O)N[C@@H](CCC(N)=O)C(=O)N[C@@H](CCC(N)=O)C(=O)N[C@@H](CCCNC(=N)N)C(=O)N[C@@H](CCCCN)C(=O)N[C@@H](CCC(=O)O)C(=O)N[C@@H](CO)C(N)=O)C(C)C) [ghrelin 1-18 fragment]”, the “rise in intracellular [Ca^2+]” value with GHS-R (cultured human T cells, ghrelin 100 ng/ml) is “significant and specific rise in intracellular [Ca^2+]”.
Regarding “leptin: a member of gp130 family of cytokines, regarded as a pro-inflammatory inducer”, in the series with primary human T cells [3] (setting [11]), the “IL-1β protein and mRNA expression” value is given as “significant dose-dependent increase”; the “IL-6 protein and mRNA expression” value is “significant dose-dependent increase”; the “TNF-α protein and mRNA expression” value is recorded as “significant dose-dependent increase”. Besides, the “ghrelin protein production or gene expression” value in the series on human T cells [7] (anti-CD3-stimulated T cells, 24 h) is recorded as “failed to exert any significant effects”. Also, in the series on human T cells [7] (human T cells, real time RT-PCR), the “GHS-R mRNA expression” value was “significant increase”.
